From US9090617B1, “Agonists of Src homology-2 containing protein tyrosine phosphatase-1 and treatment methods using the same” (National Taiwan University, priority 2011, dated 2015)
“Also recorded” adds a separate entry of the source. Where two headings read alike, the source gives them in different places.

Key:
SHP-1 [1] = target: T1, SHP-1 (Homo sapiens, UniProt P29350); experiment: Phosphatase activity of SHP-1 immunoprecipitated from PLC5 cells, incubated with compound in vitro; type: biochemical; set-up: PLC5 protein extract was incubated with anti-SHP-1 antibody in immunoprecipitation buffer overnight; endogenous in cells; host or cells: PLC5 (PLC/PRF/5)
Procedure: PLC5 protein extract was incubated with anti-SHP-1 antibody in immunoprecipitation buffer overnight. Protein G Sepharose 4 Fast flow (GE Healthcare Bio-Science) was added to each sample, followed by incubation for 3 hours at 4° C. with rotation. […] RediPlate 96 EnzChek Tyrosine Phosphatase Assay kit (R-22067) was used for SHP-1 activity assay (Molecular Probes).

phospho-STAT3 (Tyr705) = experiment: Phospho-STAT3 (Tyr705) sandwich ELISA; type: cell-based; settings: for p-STAT3 / STAT3 activity (phospho-STAT3 ELISA and luciferase reporter): PLC5 cells
Procedure: A PathScan Phospho-Stat3 (Tyr705) Sandwich ELISA Kit was used for the detection of phospho-STAT3 (Cell Signaling, Danvers, Mass.). Cells were pre-treated with IL-6 1 ng/ml and then exposed with various compounds at 10 μM for 24 h. After incubation with cell lysates, both non-phospho- and phospho-Stat3 proteins are captured by the coated antibody. The expression of phospho-STAT3 was measured at 450 nm absorbance.
The decreased level of P-STAT3 induced by these derivatives was correlated with cell toxicity. In the other words, these derivatives induced cell death in part through inhibition of STAT3.
We also assayed the activation status of p-STAT3 by STAT3 ELISA. […] SC-1 or sorafenib-treated cell extracts were incubated with antibody against phosphorylated STAT3 at Y705. […] To evaluate the transcriptional activity, STAT3-binding region was cloned into Luc reporter. […] The firefly luciferase activity was evaluated and normalized by Renilla luciferase.
p-STAT3 activity: PLC5 cells treated with SC derivatives were collected in RIPA buffer and analyzed in p-STAT3 ELISA kit. The assay protocol follows the manufacturer.

HCC cells [2] = experiment: Apoptosis analysis by flow cytometry (sub-G1); type: cell-based; settings: for apoptosis (sub-G1): HCC cells, 24 h
Procedure: Apoptotic cells were measured by flow cytometry (sub-G1). After treatment with various compounds, cells were trypsinized, collected by centrifugation and resuspended in PBS. After centrifugation, the cells were washed in PBS and resuspended in […] (PI) staining solution. Specimens were incubated in the dark for 30 min at 37° C. and then analyzed with an EPICS Profile II flow cytometer (Coulter Corp., Hialeah, Fla.). All experiments were performed in triplicate
Collected cells were fixed in 75% Ethanol and stained with 20 ug/ml Propidium Iodide (PI). Sub-G1 analysis was performed by flow-cytometry. […] Points, mean; bars, SD (n=6).

HCC cells [3] = experiment: cells; settings: 72 h
From the text: Points, mean; bars, SD (n=6).
Points, mean; bars, SD ([…]). […] The N-SH2 domain is in orange, the C-SH2 domain is in marine, the PTP domain is in hot pink, and the linkers between them are in gray. […] ELISA, enzyme-linked immunosorbent assay.

PLC5 tumors = experiment: Subcutaneous PLC5 xenograft; type: in vivo, mice; settings: for average tumor size versus control mice at the end of treatment: SC PLC5 tumor-bearing mice
Procedure: All experimental procedures using these mice were done in accordance with protocols approved by the Institutional Laboratory Animal Care and Use Committee of National Taiwan University. Each mouse was inoculated s.c. in the dorsal flank with 1×10^6 PLC5 cells suspended in 0.1 mL of serum-free medium containing 50% Matrigel (BD Biosciences). When tumors reached 100 to 200 mm3, mice received SC-40 tosylate (10 or 20 mg/kg) orally once daily. Tumors were measured weekly using calipers, and their volumes were calculated using the following standard formula: width×length×height×0.52.
(§1) We established an HCC orthotopic model using luc2-expressed PLC5 cells inoculated into liver of nude mice. […] To further correlate the molecular mechanism with the anticancer effect in vivo, p-STAT3 and SHP-1 activity in tumor extract from vehicle- and SC-treated mice was analyzed by immunoblotting. […] The pharmacokinetics of SC-43 was determined (FIG. 25E).

[4] = tested on: p-STAT3, cyclin D1, survivin, Mc1-1; experiment: Western blot of STAT3-related proteins in HCC cells; type: cell-based; settings: HCC cells, 24 h
Procedure: Cells were treated with various compounds at 5 and 10 μM for 24 h. Cell lysates were analyzed by western blot.
HCC cells treated with SC-43 (10 μM for 24 h) were collected with RIPA lysis buffer. Antibodies for immunoblotting such as cyclin D1 was purchased from Santa Cruz Biotechnology. Other antibodies such as survivin, phospho-STAT3 (Tyr705), STAT3, Mc1-1, SOCS1, and SOCS3 were from Cell Signaling.

SHP-1 [5] = target: T1, SHP-1; experiment: Phosphatase activity of recombinant SHP-1; type: biochemical; settings: 25 ng protein, 30 minutes
Procedure: RediPlate 96 EnzChek Tyrosine Phosphatase Assay kit (R-22067) was used for SHP-1 activity assay (Molecular Probes). Recombinant SHP-1 protein (25 ng) was incubated with either SC-43 or SC-40 at the indicated dose for 30 minutes and then analyzed by SHP-1 phosphatase activity.

[6] = tested on: PLC5/luc2 orthotopic tumors; experiment: HCC orthotopic model with PLC5/luc2 cells; type: in vivo, mice; settings: 10 mg/kg/day orally
Procedure: All experimental procedures using these mice were done in accordance with protocols approved by the Institutional Laboratory Animal Care and Use Committee of National Taiwan University. Each mouse was inoculated within liver […] with 1×10^4 PLC5/luc cells suspended in 0.1 mL of serum-free medium containing 50% Matrigel (BD Biosciences). […] Tumor growth was monitored by non-invasive in vivo imaging system (IVIS) image system twice weekly.
as §1

PLC5 cells = experiment: MTT assay for cell growth inhibition in PLC5 cells; type: cell-based
Procedure: These compounds were analyzed by MTT assay for cell growth inhibition in the PLC5 cells.
Next, we changed the pyridine to a quinoline ring and amide linker to generate compounds 12-25. These compounds were also analyzed by MTT assay for cell growth inhibition in the PLC5 cells.

Raf-1 = target: T2, Raf-1 (Homo sapiens, UniProt P04049); experiment: Raf-1 kinase activity in lysates of treated cells; type: cell-based
T2 construct: Raf-1 immunoprecipitated from PLC5 cell extracts was incubated with MEK recombinant protein; endogenous in cells; host or cells: PLC5
From the text: (§2) The RediPlate 96 EnzChek® Tyrosine Phosphatase Assay Kit (R-22067) was used for SHP-1 activity assay (Molecular Probes, Carlsbad, Calif.). The Raf-1 kinase cascade assay kit (Upstate-Millipore, Billerica, Mass.) was used to examine the Raf-1 kinase activity. The JAK2 kinase activity kit was purchased from Reaction Biology Corp. (Malvern, Pa.).

Huh-7 tumors = settings: for SHP-1 activity in Huh-7 tumors: tumor extract
Procedure: Male NCr athymic nude mice (5-7 weeks of age) were obtained from the National Laboratory Animal Center (Taipei, Taiwan). All experimental procedures using these mice were performed in accordance with protocols approved by National Taiwan University. […] Controls received vehicle (Chen K F et al. Cancer Res. 2008; 68:6698-6707).

Huh-7 xenograft tumor = experiment: Huh-7 xenograft with SC-59 or sorafenib and radiation; type: in vivo, mice; settings: 10 mg/kg p.o. once daily plus 5 Gy radiation for 4 days
Procedure: (A) The effects of SC-59 and radiation on tumor growth. Each mouse was inoculated subcutaneously in the right leg with […] Huh-7 cells suspended in Matrigel. When the tumor reached a volume of 400-600 mm3, mice received vehicle, 5 Gy radiation (one fraction per day) for 4 days, or 10 mg/kg SC-59 p.o. once daily, or a combination for the duration of the study. The data points indicate the mean values (n=6) and the bars indicate the standard error. There were significant differences between the combined treatment group and the vehicle control group (*, P<0.05, **, P<0.01). (B) Left, the expression of P-STAT3 in the Huh-7 tumors was analyzed by western blot. Right, quantified data for p-STAT3 to STAT3. (C) The activity of SHP-1 in Huh-7 tumors. Values are means±SD, *, P<0.05. (D) Body weight of mice after SC-59 and RT treatment. […] The data points indicate the mean values (n=6) and the bars indicate the standard error. […] (H) Body weight of mice treated with vehicle, RT, sorafenib, and combination.
To further elucidate the molecular events responsible for this synergistic effect, we examined the expression level of p-STAT3 in the tumor extract.

JAK2 = target: T3, JAK2 (Homo sapiens, UniProt O60674); experiment: JAK2 kinase activity; type: cell-based; settings: PLC5 cells, 10 μM, 24 h
T3 construct: endogenous in cells; host or cells: PLC5
From the text: as §2

VEGFR1 = target: T4, VEGFR1 (Homo sapiens, UniProt P17948); experiment: VEGFR1 activity in HUVEC cells; type: cell-based; settings: 24 h
T4 construct: we tested the effect of SC-49 on the activity of VEGFR1 in HUVEC cells; endogenous in cells; host or cells: HUVEC
From the text: To further investigate the effect of SC-49 on angiogenesis, we tested the effect of SC-49 on the activity of VEGFR1 in HUVEC cells.

STAT3 = STAT3 luciferase reporter assay; type: cell-based; settings: 10 μM, 24 h
Procedure: Cells were seeded in 96-well plate and pre-treated with IL-6 at the dose […] for 30 min. The STAT3 reporter kit was purchased from SABiosciences (Frederick, Md.).
STAT3 reporter assay: PLC5 cells were seeded in a 96-well plate. Cells were pretransfected with STAT3 reporter construct for 24 h and treated with derivatives for another 24 h. The STAT3 Reporter Kit was purchased from SABiosciences.

T1 sequence (P29350 whole entry): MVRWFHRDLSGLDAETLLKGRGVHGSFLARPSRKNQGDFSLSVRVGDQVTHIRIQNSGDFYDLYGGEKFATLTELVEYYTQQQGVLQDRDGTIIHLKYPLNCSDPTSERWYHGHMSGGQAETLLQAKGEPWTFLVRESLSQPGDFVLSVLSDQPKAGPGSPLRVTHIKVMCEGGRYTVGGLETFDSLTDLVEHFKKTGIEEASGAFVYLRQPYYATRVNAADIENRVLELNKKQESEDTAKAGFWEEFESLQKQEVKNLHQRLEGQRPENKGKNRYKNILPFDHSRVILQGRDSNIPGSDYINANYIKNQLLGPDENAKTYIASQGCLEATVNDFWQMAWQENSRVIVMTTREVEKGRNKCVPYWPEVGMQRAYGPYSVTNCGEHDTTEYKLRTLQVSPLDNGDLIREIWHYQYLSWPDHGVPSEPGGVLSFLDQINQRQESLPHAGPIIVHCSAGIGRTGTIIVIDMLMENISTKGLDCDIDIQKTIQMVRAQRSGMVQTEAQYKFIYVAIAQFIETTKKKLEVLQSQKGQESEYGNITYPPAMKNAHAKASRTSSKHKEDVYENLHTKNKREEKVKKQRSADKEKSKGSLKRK
T2 sequence (P04049 whole entry): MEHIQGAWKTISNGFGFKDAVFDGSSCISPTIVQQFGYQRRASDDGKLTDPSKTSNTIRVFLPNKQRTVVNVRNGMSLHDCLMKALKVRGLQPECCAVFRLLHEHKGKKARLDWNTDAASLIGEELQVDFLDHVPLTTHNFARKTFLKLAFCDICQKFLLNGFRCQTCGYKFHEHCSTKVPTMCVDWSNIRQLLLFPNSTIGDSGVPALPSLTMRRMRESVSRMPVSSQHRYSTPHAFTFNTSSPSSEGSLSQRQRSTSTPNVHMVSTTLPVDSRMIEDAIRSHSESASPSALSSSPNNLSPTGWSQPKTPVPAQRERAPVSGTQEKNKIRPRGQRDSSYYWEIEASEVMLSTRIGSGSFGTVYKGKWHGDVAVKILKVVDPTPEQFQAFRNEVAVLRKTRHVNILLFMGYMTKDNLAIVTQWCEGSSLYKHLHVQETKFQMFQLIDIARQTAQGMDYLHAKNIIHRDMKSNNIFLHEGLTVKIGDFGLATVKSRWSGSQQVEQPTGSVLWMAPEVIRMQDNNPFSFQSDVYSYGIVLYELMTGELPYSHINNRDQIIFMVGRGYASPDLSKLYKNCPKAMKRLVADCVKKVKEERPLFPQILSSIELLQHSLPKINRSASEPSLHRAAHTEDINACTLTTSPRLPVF
T4 sequence (P17948 27-1338): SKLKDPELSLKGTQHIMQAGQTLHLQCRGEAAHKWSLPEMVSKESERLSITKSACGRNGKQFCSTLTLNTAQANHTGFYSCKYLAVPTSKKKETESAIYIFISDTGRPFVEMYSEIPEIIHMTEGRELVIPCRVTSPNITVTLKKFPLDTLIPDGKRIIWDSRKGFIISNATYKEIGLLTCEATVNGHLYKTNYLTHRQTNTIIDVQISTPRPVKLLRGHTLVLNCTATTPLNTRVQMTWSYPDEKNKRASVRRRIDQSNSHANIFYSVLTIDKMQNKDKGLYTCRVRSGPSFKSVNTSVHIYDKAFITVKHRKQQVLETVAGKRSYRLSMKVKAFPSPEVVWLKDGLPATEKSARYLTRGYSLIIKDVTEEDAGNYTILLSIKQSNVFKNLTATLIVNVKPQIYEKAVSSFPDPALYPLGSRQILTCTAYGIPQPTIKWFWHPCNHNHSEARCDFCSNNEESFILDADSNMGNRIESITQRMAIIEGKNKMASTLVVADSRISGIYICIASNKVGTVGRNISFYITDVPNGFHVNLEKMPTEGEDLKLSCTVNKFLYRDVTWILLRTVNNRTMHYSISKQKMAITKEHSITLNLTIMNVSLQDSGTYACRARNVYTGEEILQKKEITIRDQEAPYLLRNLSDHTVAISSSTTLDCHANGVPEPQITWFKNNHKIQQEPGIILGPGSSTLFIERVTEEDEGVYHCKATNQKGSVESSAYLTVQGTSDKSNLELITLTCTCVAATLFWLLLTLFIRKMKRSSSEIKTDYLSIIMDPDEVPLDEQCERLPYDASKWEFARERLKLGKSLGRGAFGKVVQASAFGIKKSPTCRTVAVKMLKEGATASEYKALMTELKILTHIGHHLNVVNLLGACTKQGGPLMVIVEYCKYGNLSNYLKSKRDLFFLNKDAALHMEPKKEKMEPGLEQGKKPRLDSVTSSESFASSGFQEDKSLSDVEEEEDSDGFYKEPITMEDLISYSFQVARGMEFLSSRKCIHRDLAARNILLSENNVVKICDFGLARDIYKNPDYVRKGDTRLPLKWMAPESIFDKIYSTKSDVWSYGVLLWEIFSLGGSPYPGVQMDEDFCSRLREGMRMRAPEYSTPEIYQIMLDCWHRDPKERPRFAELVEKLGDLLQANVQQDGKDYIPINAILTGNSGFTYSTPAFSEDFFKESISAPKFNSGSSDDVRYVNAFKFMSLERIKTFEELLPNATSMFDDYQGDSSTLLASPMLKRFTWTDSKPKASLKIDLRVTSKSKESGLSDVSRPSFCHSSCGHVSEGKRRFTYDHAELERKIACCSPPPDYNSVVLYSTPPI
T3 sequence (O60674 whole entry): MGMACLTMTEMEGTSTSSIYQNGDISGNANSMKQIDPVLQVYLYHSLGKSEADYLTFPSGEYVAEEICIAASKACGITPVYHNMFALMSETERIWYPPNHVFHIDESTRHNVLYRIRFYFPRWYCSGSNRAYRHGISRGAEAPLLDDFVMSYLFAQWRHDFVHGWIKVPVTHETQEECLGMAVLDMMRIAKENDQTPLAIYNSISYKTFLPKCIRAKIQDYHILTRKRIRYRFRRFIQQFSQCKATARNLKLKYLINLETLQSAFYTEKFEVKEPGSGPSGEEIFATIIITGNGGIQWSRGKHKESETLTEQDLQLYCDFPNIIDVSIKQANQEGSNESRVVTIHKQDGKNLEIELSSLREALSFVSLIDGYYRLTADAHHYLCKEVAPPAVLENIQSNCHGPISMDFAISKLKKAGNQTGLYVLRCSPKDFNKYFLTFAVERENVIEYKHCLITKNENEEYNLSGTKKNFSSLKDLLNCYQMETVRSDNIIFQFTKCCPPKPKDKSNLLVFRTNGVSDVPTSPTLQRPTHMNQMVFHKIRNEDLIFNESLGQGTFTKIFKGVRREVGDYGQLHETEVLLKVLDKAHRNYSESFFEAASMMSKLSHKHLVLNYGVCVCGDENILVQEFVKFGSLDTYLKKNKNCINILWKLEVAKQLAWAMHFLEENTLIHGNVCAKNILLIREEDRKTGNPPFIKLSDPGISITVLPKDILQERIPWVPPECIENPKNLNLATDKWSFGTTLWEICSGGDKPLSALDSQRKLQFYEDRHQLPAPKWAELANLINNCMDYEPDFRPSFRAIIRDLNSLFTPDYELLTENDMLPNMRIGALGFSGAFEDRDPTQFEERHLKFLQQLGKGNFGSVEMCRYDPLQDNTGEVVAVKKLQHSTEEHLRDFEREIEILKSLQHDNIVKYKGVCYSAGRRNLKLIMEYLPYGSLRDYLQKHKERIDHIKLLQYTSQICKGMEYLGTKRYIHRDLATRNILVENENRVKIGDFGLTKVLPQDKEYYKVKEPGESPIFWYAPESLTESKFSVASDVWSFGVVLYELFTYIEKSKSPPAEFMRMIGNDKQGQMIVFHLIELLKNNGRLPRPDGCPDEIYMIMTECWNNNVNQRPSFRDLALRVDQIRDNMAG

## Nc1cc(Oc2cccc(NS(=O)(=O)c3cccc(C(F)(F)F)c3)c2)ccc1[N+](=O)[O-] [SC-40, N-(3-(trifluoromethyl)benzene-sulfonyl)-3-(3-amino-4-nitrophenoxy)benzenamine]
SHP-1 [1]; SHP-1-containing PLC5 extract, 10 or 100 nmol/L, 30 min, 4° C.
  phosphatase activity of SHP-1 in vitro: increase phosphatase activity of SHP-1 in vitro
phospho-STAT3 (Tyr705)
  p-STAT3 / STAT3 activity (phospho-STAT3 ELISA and luciferase reporter): induce strong inhibition of p-STAT3 activity; also recorded: showed more potent inhibition of the p-STAT3-related signaling pathway
HCC cells [2]
  apoptosis (sub-G1): show significant anti-cancer effects in HCC cells
HCC cells [2]; sorafenib-resistant HCC cells (SR1)
  apoptosis in sorafenib-resistant cells: resulted in significant apoptosis in sorafenib-resistant cells at submicromolar concentrations
HCC cells [3]
  viability of HCC cells / cytotoxicity: showed lower 50% inhibitory concentration, compared to sorafenib
PLC5 tumors; 10 mg/kg/day orally
  p-STAT3 and SHP-1 activity in PLC5 tumor lysate: Down-regulation of p-STAT3 and elevation of SHP-1 activity
  average tumor size versus control mice at the end of treatment: less than half that of control mice
PLC5 tumors; PLC5 xenograft, 10 or 20 mg/kg orally once daily
  body weight of the animals: do not affect body weight of the animals
PLC5 tumors; SC-40 tosylate 10 or 20 mg/kg orally once daily
  antitumor effect on PLC5 tumors: has significant anti-tumor effect on PLC5 tumors
[4]
  p-STAT3 and STAT3-related proteins (Western blot): down-regulates phospho-STAT3-related signaling pathway in HCC
SHP-1 [5]
  phosphatase activity of recombinant SHP-1: increase phosphatase activity of SHP-1 in vitro

## Cc1ccc(NC(=O)Nc2ccc(C)c(Oc3ccc(C#N)cc3)c2)cc1Oc1ccc(C#N)cc1 [SC-60, 1,3-bis(3-(4-cyanophenoxy)-4-methylphenyl)urea]
phospho-STAT3 (Tyr705)
  p-STAT3 / STAT3 activity (phospho-STAT3 ELISA and luciferase reporter): showed significant inhibition of STAT3 activity
PLC5 tumors; 10 mg/kg/day orally
  average tumor size versus control mice at the end of treatment: less than half of those of control mice
[6]
  anti-HCC effect and survival in orthotopic model: displayed significant survival benefits compared with mice treated with vehicle or sorafenib
[4]
  p-STAT3 and STAT3-related proteins (Western blot): downregulated phospho-STAT3 (p-STAT3) at tyrosine 705 in a dose-dependent manner

## CNC(=O)c1cc(Oc2ccc(NC(=O)Nc3ccc(Cl)c(C(F)(F)F)c3)cc2)ccn1 [Sorafenib, reference compound]
PLC5 cells
  IC50: 8.3 µM
Raf-1; PLC5, read-out: inhibition of Raf-1 kinase activity of the untreated cells
  inhibition at 5 µM: 50%
Raf-1; Raf-1 immunoprecipitated from PLC5 or Hep3B cell extracts, 10 μM, 24 h
  reduction in Raf-1 kinase activity: 20-40%
Huh-7 tumors; 10 mg/kg/day orally
  Huh-7 tumor size / growth versus control: less than half that of control mice
Huh-7 tumors; mouse, in vivo, po, 10 mg/kg/day
  body weight or toxicity: no apparent differences in body weight or toxicity
Huh-7 tumors
  SHP-1 activity in Huh-7 tumors: showed significant induction of SHP-1 activity in vivo
Huh-7 tumors; listed as sorafenib
  SHP-1 activity in Huh-7 tumors: enhanced the activity of SHP-1 in Huh-7 tumours
SHP-1 [1]; PLC5 lysates, incubated 6 hours
  activity of SHP-1 in SHP-1 immunoprecipitates incubated with drug: increase the activity of SHP-1
phospho-STAT3 (Tyr705); Sk-Hep1 cells pre-treated with IL-6, 24 h
  activity of p-STAT3 by STAT3 ELISA: decreased the activity of p-STAT3 significantly
HCC cells [2]
  apoptosis (sub-G1): showed a significant increase in sub-G1 phase population
HCC cells [3]; HCC cell lines, MTT
  viability of HCC cells / cytotoxicity: decreased the viability of various HCC cells
Huh-7 xenograft tumor
  tumor growth with radiotherapy combination: did not display a better synergistic effect when used in combination with radiotherapy
JAK2
  kinase activity of JAK2: neither sorafenib nor SC-1 altered the kinase activity of JAK2
VEGFR1
  activity of VEGFR1: significantly inhibited the activity of VEGFR1 in HUVEC cells
[4]
  p-STAT3 and STAT3-related proteins (Western blot): down-regulated p-STAT3 at Y705 residue and suppressed Mc1-1 and cyclin D1
STAT3
  transcription activity of STAT3 (Luc reporter): transcription activity of STAT3 was significantly decreased
